The experiment relates to sweet taste perception. In words: time-intensity test of sweet taste (12 panelists, sample vs reference solution of 2 vol % sucrose, 1 vol % ethanol). It counts as in vivo, human. The conditions noted are these: for concentration at which perceived intensity and duration of sweet taste perception are increased: in 2 vol % sucrose. The text has this: The influence of the sweet taste modulators on the temporal perception of sweetness can be shown by means of time-intensity tests. For time-intensity tests, a reference solution containing 2 vol % sucrose and 1 vol % ethanol in water and sample solutions (i.e., concentration of stock aqueous solutions listed in Table 1 below) containing 2 vol % sucrose and 1 vol % ethanol and the test compound in different concentrations in water were rated on a horizontal, non-structured line scale from 0 (not detectable) to 10 (very strongly detectable). The reference solution served as a baseline for the time-intensity tests upon which the sample solutions were compared for the temporal perception of sweetness. Twelve panelists were asked to rinse their mouths with an aliquot (10 mL) of a solution and immediately start rating solution's sweet taste intensity for a period of 5 seconds. […] The rating results were the averages from the twelve panelists.
FIGS. 7A and 7B illustrate empirical (FIG. 7A) and predictive (FIG. 7B) model time-intensity experiments using the reference solution containing 2 vol % sucrose and 1 vol % ethanol in water and a sample solution containing 50 μM EMF, 2 vol % sucrose and 1 vol % ethanol in water. Time intensity tests enable continuous measurement of the intensity of taste impressions.
After calculating average time intensity (TI) curves using FIZZ biosystems calculations software and determining the TI curves integrated value (i.e., area under the curve), duration, and duration of the increasing and decreasing phase from individual TI curves, the trapezoidal method was applied after extraction of data points at 5% and 95% of the respective maximum intensity on the increasing and decreasing sections of the individual TI curves. The following parameters were extracted for further data analysis: maximum intensity (Imax) of taste perception experienced, total area under the curve (Atotal) 1 (i.e., total amount) of taste perception experienced and total duration (Dtotal) of taste perception experienced. Extracted parameters of sample solutions were normalized on the reference solution from the same evaluation session and a two-way analysis of variance (ANOVA) was conducted.
Table 2 below illustrates an overview of all p-values generated by two-way ANOVA of maximum intensity (Imax), total area under the curve (Atotal) land total duration (Dtotal) for sample solutions containing 5-ethyoxymethylfurfural (EMF), as well as ester of 5-hydroxymethylfurfural and vanillic acid (VanMF), 4-hydrozybenzaldehyde (pHBA), syringic aldehyde (SyA), and sinapic aldehyde (SinA), respectively. P-values (i.e., calculated probabilities) are statistical measures ranging from 0 to 1 which quantify the statistical significance of a data set. In other words, the p-value is a function of the observed sample results (a test statistic) relative to a statistical model, which measures how extreme the observation is. Smaller p-values are indicative of scaling significance. For example, p <0.05 are “significant” (*) (i.e., less than 1 in 20 chance, or 5%, of the data set being erroneous or inaccurate); p <0.01 are “highly significant” (**) (i.e., less than 1 in 100 chance, or 1%, of the data set being erroneous or inaccurate); and, p <0.001 are “very highly significant” (***) (less than 1 in 1000 chance, or 0.1%, of the data set being erroneous or inaccurate). Measured concentrations of EMF, VanMF, pHBA, SyA, and SinA in the sample solutions used in the statistical analysis are 10 μmol/L, 25 μmol/L, and 50 μmol/L, respectively. The p-values in Table 2 below relate to the statistical significance of the Imax, Atotal, and Dtotal values of sample solutions containing EMF, VanMF, pHBA, SyA, and SinA, respectively, in FIGS. 8-12.

As for `CCOCc1ccc(C=O)o1` [EMF, 5-ethoxymethyl-2-furaldehyde], for the setting “10 μM”, the “increase of Atotal vs reference solution (significance)” value (“increase of Atotal … (significance)” for short) is on record as “no significant increases”, the “increase of Dtotal vs reference solution (significance)” value (“increase of Dtotal … (significance)” below) is given as “no significant increases” and the “increase of Imax vs reference solution (significance)” value (“increase of Imax … (significance)” for short) is reported as “no significant increases”. Further, for the setting “25 μM”, the “increase of Atotal … (significance)” value is “no significant increases”, the “increase of Dtotal … (significance)” value was “no significant increases” and the “increase of Imax … (significance)” value is “very highly significant increase”. For the setting “50 μM”, the “increase of Atotal … (significance)” value was “*** (p <0.001 are “very highly significant” (***))”, the “increase of Dtotal … (significance)” value is “*** (p <0.001 are “very highly significant” (***))” and the “increase of Imax … (significance)” value is listed as “*** (p <0.001 are “very highly significant” (***))”. For the setting “50 μM in 2 vol % sucrose, 1 vol % ethanol”, the “total area under the curve (Atotal) compared with reference solution” value is given as “greater than Atotal for the reference solution”. Moreover, the “maximum intensity (Imax) of sweet taste perception on the intensity scale” value (50 μM in 2 vol % sucrose, 1 vol % ethanol, scale 0 to 10, reference solution about 3.5) is given as roughly 5. For the same compound, the “concentration at which perceived intensity and duration of sweet taste perception are increased” value (1 vol % ethanol) was “at least 50 μM”.
Regarding `O=Cc1ccc(O)cc1` [pHBA, 4-hydrozybenzaldehyde], for the setting “10 μM”, the “increase of Atotal … (significance)” value is on record as “No significant increases”, the “increase of Dtotal … (significance)” value is “No significant increases” and the “increase of Imax … (significance)” value is recorded as “No significant increases”. Further, under “25 μM”, the “increase of Atotal … (significance)” value is given as “** (p <0.01 are “highly significant” (**))” and the “increase of Imax … (significance)” value is “*** (p <0.001 are “very highly significant” (***))”. Also, where the note is “50 μM”, the “increase of Atotal … (significance)” value is on record as “** (p <0.01 are “highly significant” (**))”, the “increase of Dtotal … (significance)” value is given as “** (p <0.01 are “highly significant” (**))” and the “increase of Imax … (significance)” value was “** (p <0.01 are “highly significant” (**))”. Moreover, the “concentration at which perceived intensity and duration of sweet taste perception are increased” value (1 vol % ethanol) is 50 µM.
As to `COc1cc(C(=O)OCc2ccc(C=O)o2)ccc1O` [VanMF, ester of 5-hydroxymethylfurfural and vanillic acid], the “increase of Atotal … (significance)” value was “** (p <0.01 are “highly significant” (**))” (10 μM), “* (p <0.05 are “significant” (*))” (25 μM) and “no significant increases” (50 μM). Moreover, the “increase of Dtotal … (significance)” value reads like this: (10 μM) “** (p <0.01 are “highly significant” (**))”; (25 μM) “* (p <0.05 are “significant” (*))”; (50 μM) “* (p <0.05 are “significant” (*))”. Moreover, the “increase of Imax … (significance)” value is “** (p <0.01 are “highly significant” (**))” (10 μM), “** (p <0.01 are “highly significant” (**))” (25 μM) and “no significant increases” (50 μM).
Regarding `COc1cc(C=O)cc(OC)c1O` [SyA, syringic aldehyde], the “increase of Atotal … (significance)” value (10 μM) was “do not have a significant influence”, the “increase of Atotal … (significance)” value (25 μM) was “*** (p <0.001 are “very highly significant” (***))” and the “increase of Atotal … (significance)” value (50 μM) is on record as “** (p <0.01 are “highly significant” (**))”. Also, the “increase of Dtotal … (significance)” value (10 μM) is given as “do not have a significant influence” and the “increase of Dtotal … (significance)” value (25 μM) is listed as “* (p <0.05 are “significant” (*))”. Besides, the “increase of Imax … (significance)” value is listed as “do not have a significant influence” (10 μM), “** (p <0.01 are “highly significant” (**))” (25 μM) and “** (p <0.01 are “highly significant” (**))” (50 μM).
For the compound `COc1cc(/C=C/C=O)cc(OC)c1O` [SinA, sinapic aldehyde], the “increase of Atotal … (significance)” value was “significant increases” (10 μM), “significant increases” (25 μM) and “significant increases” (50 μM). Also, the “increase of Dtotal … (significance)” value is, setting by setting: (10 μM) “no significant increase”; (25 μM) “significant increases”; (50 μM) “significant increases”. Also, the “increase of Imax … (significance)” value is “significant increases” (10 μM), “significant increases” (25 μM) and “significant increases” (50 μM).
